These results are taken from US7692004B2, “Use of metal complex compounds as oxidation catalysts” (Ciba Specialty Chemicals Corporation, priority 2001, dated 2010).

A short description of assay [1]: Bleaching action in washing agents (LINITEST, DY increase). The following applies: 1:1 Mn complex with ligand, H2O2 8.6 mmol/l, 30 minutes at 40° C. On the procedure: 7.5 g of white cotton fabric and 2.5 g of tea-stained cotton fabric are treated in 80 ml of washing liquor. The liquor contains a standard washing agent (ECE, 456 IEC) in a concentration of 7.5 g/l. The hydrogen peroxide concentration is 8.6 mmol/l. […] The washing process is carried out in a steel beaker in a LINITEST apparatus for 30 minutes at 40° C. For evaluating the bleaching results, the increase in the lightness DY (difference in lightness according to CIE) of the stains brought about by the treatment is determined spectrophotometrically in comparison with values obtained without the addition of catalyst.

The nature of assay [2]: Cleaning performance on soiled surfaces at 53° C. The following applies: for Difference (rating minus rating of reference): 1:1 manganese complex 7.3 μM, 53° C., reference = catalyst-free system; for Rating: 1:1 manganese complex with ligand 7.3 μM, H2O2 1.1 mM, pH 10.0, 23° to 53° C., visual scale 1 (no cleaning) to 10 (clean). On the procedure:
(§1) A tea-stained cup is filled with 100 ml of a buffer solution (10 mM carbonate, pH=10.0) containing 1.1 mM of hydrogen peroxide and 7.3 μM of 1:1 manganese complex (prepared as described in Application Example 2). Using a thermostat, the temperature of the solution is raised from 23° to 53° C. over a period of 12 minutes and maintained at the final temperature for 23 minutes. After rinsing and drying in air, the results are evaluated visually on a scale of 1 (no cleaning) to 10 (clean). The catalyst-free system is used as reference.

Assay [3] is described as follows: Decomposition of hydrogen peroxide (iodometric). The following applies: 1:1 manganese complex with ligand 7.3 μM, initial H2O2 1.1 mM. The method, then: as §1
The procedure is as in Application Example 3 but the consumption of H2O2 is determined iodometrically.

Assay [4] can be described thus: Activity of the manganese catalysts after the bleaching cycle. The following applies: for Difference DDY: versus H2O2 without Mn complex. On the procedure: 7.5 g of white cotton fabric and 2.5 g of tea-stained cotton fabric are treated in 80 ml of washing liquor. The liquor contains a standard washing agent (ECE, 456 IEC) in a concentration of 7.5 g/l. The hydrogen peroxide concentration is 8.6 mmol/l. The catalyst concentration (1:1 complex of manganese(II) chloride tetrahydrate with the ligand in question, prepared in methanolic solution with the addition of a small amount of lithium hydroxide) is 50 μmol/l. The washing process is carried out in a steel beaker in a LINITEST apparatus for 30 minutes at 40° C. For evaluating the bleaching results, the increase in the lightness DY (difference in lightness according to CIE) of the stains brought about by the treatment is determined spectrophotometrically in comparison with values obtained without the addition of catalyst.
The procedure as described in Application Example 2 is carried out for the 1st cycle, the cotton fabric is removed and for the 2nd cycle the procedure is carried out afresh with a new, as yet untreated cotton fabric. The DY values are determined as described in Application Example 2.

A short description of assay [5]: Action as catalyst for DTI (dye transfer inhibition). The following applies: 1:1 manganese complex 50 μmol/l; H2O2 8.6 mmol/l; Direct Brown 172 10 mg/l; 30 minutes at 40° C. The method, then: 7.5 g of white cotton fabric are treated in 80 ml of washing liquor. The liquor contains a standard washing agent (ECE, 456 IEC) in a concentration of 7.5 g/l. The hydrogen peroxide concentration is 8.6 mmol/l. The catalyst concentration (of manganese(II) chloride tetrahydrate with the ligand, prepared in methanolic solution with the addition of a small amount of lithium hydroxide) is 50 μmol/l, and a solution of the test dye Direct Brown 172 having 10 mg/l of the 250% formulation. The washing process is carried out in a steel beaker in a LINITEST apparatus for 30 minutes at 40° C. For testing the activity of the catalysts, the DTI activity is determined.
The reflection spectra of the samples were measured using a SPECTRAFLASH 2000 and converted into lightness values (D65/10) in accordance with a standard CIE procedure.

Assay [6] is described as follows: Catalytic action for the epoxidation of olefins. The conditions noted are these: ligand 0.05 mmol with manganese(II) acetate tetrahydrate 0.04 mmol, sodium ascorbate, H2O2; 14 hours at room temperature; by 1H-NMR. The method, then:
17 mg (0.05 mmol) of 2-[(2-hydroxy-ethyl)-[2,2′;6′,2″]terpyridin-4′-yl-amino]-ethanol (L7, Example 7), 10 mg (0.04 mmol) of manganese(II) acetate tetrahydrate and 0.32 mmol of sodium ascorbate are added to a solution of 1.09 ml (10 mmol) of ethyl acrylate in 0.5 ml of acetonitrile. The mixture is cooled in an ice bath and a 30% strength hydrogen peroxide solution (2.27 g, 20 mmol) is added dropwise thereto in the course of 20 minutes. The mixture is then left for 14 hours at room temperature, then diluted with diethyl ether and the phases are separated. The organic extract is dried over sodium sulfate, filtered and concentrated. The catalytic turnover number for the epoxide formed, ethyl oxirane-2-carboxylate, is determined by comparing the intensity of the epoxide methine proton at 3.34-3.38 ppm with the ligand signal L7 at 8.53 ppm as reference and is 35±8. Ethyl oxirane-2-carboxylate, epoxide signals ^1H-NMR (360 MHz, CDCl3): 2.68-2.89 (m, 2H, CH2); 3.34-3.38 (m, 1H, CH). Without the addition of ligand, epoxide cannot be detected.

A short description of assay [7]: Catalytic bleaching of cellulose. The conditions noted are these: catalytically bleached; 20 μM catalyst, 8.6 mM H2O2, pH 10.0, 40° C., 30 minutes; untreated sample 63.4. The method, then: 20 g of cellulose [TPP-CT CSF129, Ref. No. P-178635 (ISO 57.4)] are steeped in a litre of water for 65 hours and then stirred in a mixer for 2 minutes to give a paste-like pulp. A bleaching bath containing 50 g of the pulp so prepared in 180 ml of water, 100 μM of Dequest 2041 (sequestering agent), 8.6 mM of hydrogen peroxide and 20 μM of catalyst from Example 35 is maintained at 40° C. for 30 minutes. At the same time 1N sodium hydroxide solution is metered-in in such a manner that a pH of 10.0 is maintained. Filtration and air-drying are then carried out. A sample that has been compressed to form a circular sheet of 10 cm diameter is then tested for the lightness Y obtained (according to CIE, reflectance spectroscopy).

Assay [8] can be described thus: Cleaning performance on soiled surfaces at 23° C. The following applies: 0.16 g/l, constant 23° C., 45 minutes. On the procedure:
as §1
The procedure is as in Application Example 3 but the cleaning is carried out at a constant temperature of 23° C. (duration: 45 minutes).

Setting [9] is: 50 μmol/l, ECE washing agent 7.5 g/l, versus no catalyst.

In the case of `O=c1cc(-c2ccccn2)[nH]c(-c2ccccn2)c1` [Ligand L1, 1′H-[2,2′;6′,2″]Terpyridin-4′-one], the DY increase in assay [1] (setting [9]) is reported as 5.0. Further, in assay [2], the “Difference (rating minus rating of reference)” value is recorded as 1.9 and the Rating is 5.0 (3.1). For the same compound, the “Residual H2O2” value in assay [3] (procedure of Application Example 3) is reported as 0.73 mM. Also, in assay [3] (H2O2 consumption), the Consumption is 34%.
The compound `NNc1cc(-c2ccccn2)nc(-c2ccccn2)c1` [Ligand L4, [2,2′;6′,2″]Terpyridin-4′-yl-hydrazine] registered a DY increase in assay [1] (setting [9]) of 5.0.
In assay [1] (setting [9]), `CN(CCO)c1cc(-c2ccccn2)nc(-c2ccccn2)c1` [Ligand L5, 2-(Methyl-[2,2′;6′,2″]terpyridin-4′-yl-amino)-ethanol] displayed a DY increase of 5.2.
Compound `c1ccc(-c2cc(N3CCCC3)cc(-c3ccccn3)n2)nc1` [Ligand L6, 4′-Pyrrolidin-1-yl-[2,2′;6′,2″]terpyridine] had a DY increase in assay [1] (setting [9]) of 5.8. Also, in assay [2], the “Difference (rating minus rating of reference)” value was found to be 3.9 and the Rating is 7.2 (3.3).
In the case of `OCCN(CCO)c1cc(-c2ccccn2)nc(-c2ccccn2)c1` [Ligand L7, 2-[(2-Hydroxy-ethyl)-[2,2′;6′,2″]terpyridin-4′-yl-amino]-ethanol], the DY increase in assay [1] (setting [9]) came out at 5.6. In assay [2], the “Difference (rating minus rating of reference)” value came out at 3.6 and the Rating is given as 6.9 (3.3). In assay [4] (1st cycle), the “Bleaching value with H2O2 and the 1:1 Mn complex (DY)” value was “DY = 23.0”; the “Difference DDY” value is 8.1. The “Bleaching value with H2O2 and the 1:1 Mn complex (DY)” value in assay [4] (2nd cycle, same liquor, new fabric) is listed as “DY = 19.0”. Besides, in assay [4] (2nd cycle), the “Difference DDY” value is on record as 8.0. The DTI activity a in assay [5] was 90%. In addition, in assay [6], the “Catalytic turnover number for the epoxide formed, ethyl oxirane-2-carboxylate” value is 35±8.
Consider `CN1CCN(c2cc(-c3ccccn3)nc(-c3ccccn3)c2)CC1` [Ligand L8, 4′-(4-Methyl-piperazin-1-yl)-[2,2′;6′,2″]terpyridine], for which the DY increase in assay [1] (setting [9]) came out at 5.0.
Same read-out and setting: next, `c1ccc(-c2cc(N3CCCCCC3)cc(-c3ccccn3)n2)nc1` [Ligand L9, 4′-Azepan-1-yl-[2,2′;6′,2″]terpyridine]: 3.8.
As to `c1ccc(-c2cc(N3CCCCC3)cc(-c3ccccn3)n2)nc1` [Ligand L10, 4′-Piperidin-1-yl-[2,2′;6′,2″]terpyridine], the DY increase in assay [1] (setting [9]) was determined as 4.4. Besides, in assay [2], the “Difference (rating minus rating of reference)” value is 2.1 and the Rating is reported as 5.2 (3.1).
In turn, `c1ccc(-c2cc(N3CCOCC3)cc(-c3ccccn3)n2)nc1` [Ligand L11, 4′-Morpholin-4-yl-[2,2′;6′,2″]terpyridine] had a DY increase in assay [1] (setting [9]) of 5.5. Besides, in assay [2], the “Difference (rating minus rating of reference)” value amounted to 2.4 and the Rating is 5.7 (3.3).
The compound `CCOc1ccnc(-c2cc(=O)cc(-c3cc(OCC)ccn3)[nH]2)c1` [Ligand L17, 4,4″-Diethoxy-1′H-[2,2′;6′,2″]terpyridin-4′-one] gave a DY increase in assay [1] (setting [9]) of 5.3.
With `O=c1cc(-c2cc(N3CCCC3)ccn2)[nH]c(-c2cc(N3CCCC3)ccn2)c1` [Ligand L18, 4,4″-Di-pyrrolidin-1-yl-1′H-[2,2′;6′,2″]terpyridin-4′-one], the DY increase in assay [1] (setting [9]) was 3.0.
Turning to `CN(CCO)c1ccnc(-c2cc(=O)cc(-c3cc(N(C)CCO)ccn3)[nH]2)c1` [Ligand L19, 4,4″-Bis[(2-hydroxy-ethyl)-methyl-amino]-1′H-[2,2′;6′,2″]terpyridin-4′-one], in assay [1] (half concentration used), the DY increase is 5.3^1).
On to `CN(CCO)c1ccnc(-c2cc(N(C)CCO)cc(-c3cc(N(C)CCO)ccn3)n2)c1` [Ligand L25, 2-({4′,4″-Bis[(2-hydroxy-ethyl)methyl-amino]-[2,2′;6′,2″]terpyridin-4-yl}-methylamino)-ethanol], for which the DY increase in assay [1] (setting [9]) turned out to be 6.2.
Compound `CCOc1ccnc(-c2cc(N(CCO)CCO)cc(-c3cc(OCC)ccn3)n2)c1` [Ligand L28, 2-[(4,4″-Diethoxy-[2,2′;6′,2″]terpyridin-4′-yl)-(2-hydroxy-ethyl)-amino]-ethanol] gave a DY increase in assay [1] (setting [9]) of 4.3. Besides, in assay [2], the “Difference (rating minus rating of reference)” value is 2.2 and the Rating is reported as 5.2 (3.0).
With `COc1ccccc1-c1cccc(-c2cccc(-c3cccc(-c4ccccc4OC)n3)n2)n1` [Ligand L29, 6,6″-Bis(2-methoxyphenyl)-2,2′:6′:2″-terpyridine], the “Lightness Y” value in assay [7] worked out at 66.9.
With `CC(=O)N(CCN(C(C)=O)C(C)=O)C(C)=O` [N,N′-tetraacetylethylenediamine (TAED), N,N,N′,N′-tetraacetylethylenediamine], the “Difference (rating minus rating of reference)” value in assay [8] came to 2.9. In assay [8] (scale 1 to 10), the Rating is reported as 6.8 (3.9).
